From patent US9623002B2, “Pharmaceutical compositions of Anisomelic acid and the use thereof” (priority 2012, dated 2017)
“Also recorded” adds a separate entry of the source.

How the values were obtained:
[1] = test system: SiHa cells; assay: PE active caspase-3 apoptosis assay by FACS; assay type: cell-based
Protocol: (§1) SiHa cells were treated with 0-50 μM AA or solvent control at 10 μM interval. […] Fourty eight hours later, the cells were collected and analyzed for apoptosis and/or necrosis. Activated caspase-3 in cells was labeled with phyco-erythrin-conjugated antibody according to manufacturer's protocol (PE Active Caspase-3 Apoptosis Kit; BD Pharmingen, San Diego, Calif.) and analyzed by FACSCalibur flow cytometer (FL-2, FSC, BD Pharmingen). SiHa cells were also tested with 40 μM AA and AA emulsion for 24 and 48 h. The cells were collected and analyzed for apoptosis adopting PE active caspase-3 assay by FACS.

[2] = test system: caspase-9, caspase-8, caspase-3 and PARP; assay: Western blotting for cleavage of caspases and PARP; assay type: cell-based; conditions: SiHa lysates
Protocol: Whole cell lysates were prepared by lysing the cells in Laemmli sample buffer (Laemmli, 1970) and boiling the samples for 10 min after which proteins were separated in 12.5-15% SDS-PAGE. Western blotting was performed using antibodies against poly (ADP-ribose) polymerase (clone C-2-10; Sigma-Aldrich), Bid, Bax, caspase 8, caspase 9, caspase 3, SAPK/JNK, Phospho SAPK/JNK (Thr183/Tyr185), cIAP2 (Enzo Lifesciences), Akt, Phospho Akt(Ser473) (Cell Signalling Technology, Davers, Mass., USA), p21, Bcl-xL (Santa Cruz Biotechnology, Inc, Santa Cruz, Calif.), β-actin (clone AC-40; Sigma-Aldrich) and p53 (clone DO-1; BD Pharmingen). Horseradish peroxidase-conjugated secondary antibodies were obtained from Southern Biotechnology Associates (Birmingham, Ala.), Promega (Madison, Wis.) and Amersham Biosciences (Freiburg, Germany). The results were visualized using the ECL method (Amersham Biosciences) on X-ray film. The presented Western blot results are representative of at least three independent experiments.

[3] = test system: HeLa cells; assay: Apoptosis analysis in HeLa cells; assay type: cell-based; conditions: HPV positive HeLa cells (p53+), 40 μM AA, 48 h
Protocol: as §1, with “Pharmingen).” for “Pharmingen). SiHa cells were also tested with 40 μM AA and AA emulsion for 24 and 48 h. The cells were collected and analyzed for apoptosis adopting PE active caspase-3 assay by FACS.”
(§2) HeLa, Caski, c33a, MCF7, MDA-MB-231 and MEF cells were treated with 0 and 40 μM AA. Forty eight hours later, the cells were collected and analyzed for apoptosis.

[4] = test system: Mouse Embryonic Fibroblasts (MEF); assay: Cell death analysis in MEF cells; assay type: cell-based; conditions: non-cancerous MEF cells, 40 μM AA
Protocol: as §1, with “Pharmingen).” for “Pharmingen). SiHa cells were also tested with 40 μM AA and AA emulsion for 24 and 48 h. The cells were collected and analyzed for apoptosis adopting PE active caspase-3 assay by FACS.”
as §2

[5] = test system: SiHa cells; assay: MTT cytotoxicity assay; assay type: cell-based; conditions: 50 μM AA, preliminary studies, unpublished data
[6] = test system: MCF7 cells; assay: Apoptosis analysis in MCF7 cells; assay type: cell-based; conditions: breast cancer MCF7 cells (p53+), 40 μM AA, 48 h
Protocol: as §1, with “Pharmingen).” for “Pharmingen). SiHa cells were also tested with 40 μM AA and AA emulsion for 24 and 48 h. The cells were collected and analyzed for apoptosis adopting PE active caspase-3 assay by FACS.”
as §2

[7] = test system: SiHa cells; assay: Propidium iodide detection of permeabilized (necrotic) cells; assay type: cell-based; conditions: AA doses greater than 40 μM
Protocol: For detection of permeabilized (necrotic) cells, the cells were trypsinized and resuspended in 50 μg/ml Propidium Iodide (PI) (Sigma-Aldrich) in PBS for 10 minutes at room temperature. The samples were analyzed by flow cytometry.

[8] = test system: SiHa cells; assay: Cell cycle analysis of synchronized cells (PI, flow cytometry); assay type: cell-based; conditions: 24 h
Protocol: (§3) Cells were synchronized by serum-starvation (1% serum) for 48 h and then cultured in medium containing 10% FCS for 24 h. After this, the cells were incubated with 0, 20 and 40 μM AA for 24. These doses were chosen since apoptosis induction was highest at 40 μM (the dose was limited to 40 μM in the following studies). The cells were collected and disrupted and the nuclei labelled for DNA content with PI by re-suspension in sodium citrate buffer [40 mM Na-citrate, 0.3% Triton X-100, 50 μg/ml PI (Sigma-Aldrich)]. After incubation at room temperature for 10 min, the samples were immediately analyzed by FACSCalibur flow cytometry.

[9] = test system: SiHa cells; assay: Mitochondrial depolarization by TMRM labeling; assay type: cell-based; conditions: 20-40 μM AA, 8-48 h
Protocol: Tetramethylrhodamine, methyl ester (TMRM, Invitrogen, Cergy Pontoise, France) was stored as 20 mM dimethylsulfoxide stock and diluted in medium before use. The cells were incubated in 20 nM tetramethylrhodamine for 10 min in 37° C. water bath. The cells were placed on ice and analyzed immediately by FACSCalibur flow cytometry.

[10] = test system: Caski cells; assay: Apoptosis analysis in Caski cells; assay type: cell-based; conditions: HPV positive Caski cells (p53+), 40 μM AA, 48 h
Protocol: as §1, with “Pharmingen).” for “Pharmingen). SiHa cells were also tested with 40 μM AA and AA emulsion for 24 and 48 h. The cells were collected and analyzed for apoptosis adopting PE active caspase-3 assay by FACS.”
as §2

[11] = test system: c33a cells; assay: Apoptosis analysis in c33a cells; assay type: cell-based; conditions: HPV negative c33a cells (p53−), 40 μM AA, 48 h
Protocol: as §1, with “Pharmingen).” for “Pharmingen). SiHa cells were also tested with 40 μM AA and AA emulsion for 24 and 48 h. The cells were collected and analyzed for apoptosis adopting PE active caspase-3 assay by FACS.”
as §2

[12] = test system: MDA-MB-231 cells; assay: Apoptosis analysis in MDA-MB-231 cells; assay type: cell-based; conditions: breast cancer MDA-MB-231 cells (p53−), 40 μM AA, 48 h
Protocol: as §1, with “Pharmingen).” for “Pharmingen). SiHa cells were also tested with 40 μM AA and AA emulsion for 24 and 48 h. The cells were collected and analyzed for apoptosis adopting PE active caspase-3 assay by FACS.”
as §2

[13] = Solubility; assay type: physicochemical
[14] = test system: SiHa cells with p53 down-regulated by p53-shRNA; assay: RNA interference: p53-shRNA SiHa cells treated with AA; assay type: cell-based
Protocol: as §3
The pSUPER vector (SEQ ID NO: 1) (Oligoengine, Seattle, Wash., USA) for expression of human p53 targeted shRNA (5′[…] AGUCUU3′, Brummelkamp et al., 2002) was kindly provided by Dr. Pia Roos-Mattjus. The scramble (Scr) pSUPER vector (SEQ ID NO: 2) (5′GCG CGC TTT GTA GGA TTC G3′, Ostling et al., 2007) was transfected to control cells. Trypsinized SiHa cells were transfected with the shRNA expression plasmids by electroporation in Opti-MEM media (Gibco, Calif., USA). Twenty four hours post-transfection, the culture medium was changed and the cells were treated with AA or left untreated, after which the cells were cultured for another 24 h or 48 h. The efficiency of the shRNA expression vector was determined by Western blotting for p53 expression.
Whole cell lysates were prepared by lysing the cells in Laemmli sample buffer (Laemmli, 1970) and boiling the samples for 10 min after which proteins were separated in 12.5-15% SDS-PAGE. Western blotting was performed using antibodies against poly (ADP-ribose) polymerase (clone C-2-10; Sigma-Aldrich), Bid, Bax, caspase 8, caspase 9, caspase 3, SAPK/JNK, Phospho SAPK/JNK (Thr183/Tyr185), cIAP2 (Enzo Lifesciences), Akt, Phospho Akt(Ser473) (Cell Signalling Technology, Davers, Mass., USA), p21, Bcl-xL (Santa Cruz Biotechnology, Inc, Santa Cruz, Calif.), β-actin (clone AC-40; Sigma-Aldrich) and p53 (clone DO-1; BD Pharmingen). […]

[15] = test system: c33a cells; assay: His-tag E6 plasmid transfection of c33a cells, Western blot and FACS; assay type: cell-based; conditions: 70 μM AA
Protocol: c33a cells were pelleted and resuspended in OPTIMEM (Gibco, Invitrogen Foundation, Washington D.C., USA) and electroporated with mock or His-tag E6 plasmid at 220 V and 975 μF. Twenty four hours post-transfection, the culture medium was changed and the cells were treated with AA or left untreated, after which the cells were cultured for another 24 h or 48 h for further analysis adopting Western blotting and cell death assay by FACS.

Z-VAD.fmk [reference compound]
effect on AA-induced caspase-3 activation ([1]; SiHa, pre-incubation with 40 μM Z-VAD.fmk prior to 40 μM AA, data not shown): reversed caspase-3 activation and apoptotic cell morphology

C=C1C(=O)O[C@H]2/C=C(\C)CC/C=C(\C(=O)O)CC/C=C(\C)CC[C@H]12 [AA, Anisomelic acid]
cleavage of caspase-3 and PARP ([2]; 20-40 μM AA): induced the cleavage of caspase-3 and poly-ADP-ribose polymerase (PARP)
cleavage of procaspase-9 into 35/37 kDa fragments ([2]; 20 and 40 μM AA): seen after 12 h incubation
cleavage of procaspase-8 ([2]; AA treatment): observed abundantly only after 24 h
time at which maximum percentage of apoptosis was achieved ([1]; SiHa cells): 48 h
cells that contained activated caspase-3 as a measure of apoptosis ([1]; SiHa, 40 μM AA, 48 h): marked activation of caspase-3
caspase-3 cleavage ([1]; SiHa, AA doses greater than 40 μM): reduced caspase-3 cleavage dramatically
apoptosis induction [3]: effectively induced apoptosis
cell death [4]: failed to induce cell death
killing [5]: ≥ 95%
apoptosis induction [6]: failed to induce effective apoptosis
cell permeabilization by PI labeling (necrotic cell death) [7]: could not detect increased cell permeabilization
cell cycle distribution ([8]; 20 and 40 μM AA): accumulated at the G2/M phase
dose at which G2/M arrest occurred more effectively [8]: 20 µM
mitochondrial membrane depolarization [9]: occured in a time-dependent manner
apoptosis induction [10]: effectively induced apoptosis
apoptosis induction [11]: significantly less; also recorded: do not undergo apoptosis
apoptosis induction [12]: failed to induce effective apoptosis
solubility in DMSO and hot ethanol [13]: dissolves
solubility in water or other aqueous solvents [13]: mostly insoluble
percentage of AA-induced apoptosis (caspase-3 activation, flow cytometry) ([14]; SiHa cells in the absence of p53 expression, 40 μM AA): did not observe any significant decrease
induction of p53 and p21 proteins by AA ([14]; p53-shRNA SiHa cells, 40 μM & 20 μM AA respectively): abrogated
AA-induced cell cycle arrest ([14]; p53-shRNA SiHa cells, 24 h after start of AA treatment): no longer accumulated at the G2/M phase
AA-induced apoptosis after E6 transfection ([15]; c33a cells transfected with His-tag E6 vs mock): rescued c33a cells from apoptsis significantly
apoptosis induction ([15]; c33a cells): undergo apoptosis
